Measured values from patent publication EP1389461A1, “Pyrimidones with antiviral properties” (Axxima Pharmaceuticals Aktiengesellschaft, priority 2002, dated 2004).

System: HCMV
Experiment: HCMV replication in vitro
Assay type: cell-based, human cytomegalovirus (HCMV)
Settings: Human betaherpesvirus 5

Compound Nc1nc(O)c2ncn(COC(CO)CO)c2n1 [ganciclovir] has an IC50 of 3 to 4 µM.
